Results on eleven molecules are retold here after ChEMBL document CHEMBL1201862, “PubChem BioAssay data set” (2004).

Each structure is given as a SMILES string.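 Each compound was tested at five concentrations against cells in 96-well plates for 48 hours. GI50 = concentration required for 50% inhibition of growth.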 Activity calls are given as the source filed them. No stated cut-off is given here; in the data, active = GI50 up to about 1.1 µM and inactive = higher. Some results are limits rather than exact numbers.

Among the test systems are DU-145; SK-MEL-28; MDA-MB-231; K562; Hs-578T; HCT-15; SF-268; SK-MEL-5; NCI-H226; MDA-MB-435; EKVX; OVCAR-4; LOX IMVI; COLO 205; SR; RPMI-8226; SK-OV-3; OVCAR-5; HOP-92; SF-539.
Holding throughout (experiment): DTP human tumour cell line panel, 48 h

Regarding `CC1C=C(NCC2(CO)CCC2)N=C(N)N1` (stereo unspecified), the GI50 was > 100 µM (inactive) in the assay with DU-145; > 100 µM (inactive) in the assay with SK-MEL-28; > 100 µM (inactive) in the assay on MDA-MB-231; > 100 µM (inactive) in the assay with K562; > 100 µM (inactive) with Hs-578T; above 100 µM in the assay on HCT-15. Besides, the GI50 with SF-268, in the assay on SK-MEL-5, in the assay with NCI-H226, in the assay with MDA-MB-435, in the assay on EKVX and in the assay on OVCAR-4 was > 100 µM (inactive) throughout. In addition, the GI50 in the assay with LOX IMVI, in the assay with COLO 205, with SR, in the assay on RPMI-8226, in the assay on SK-OV-3 and in the assay on OVCAR-5 was > 100 µM (inactive) in each case. Also, the GI50 with HOP-92 is > 100 µM (inactive).

With `Oc1cccc(-c2cc(O)c3cc4c(cc3n2)OCO4)c1`, the 50% growth inhibitory concentration (GI50) with DU-145 was 0.302 µM (active); in the assay on SK-MEL-28, 2.81 µM (inactive); in the assay on MDA-MB-231 it was 1.92 µM (inactive); with K562 it was 0.505 µM (active); with Hs-578T, 0.457 µM (active); in the assay on HCT-15, 2.74 µM. The GI50 in the assay with SF-268 is 1.71 µM (inactive); in the assay on SK-MEL-5, 1.46 µM (inactive); with NCI-H226, 2.9 µM (inactive); in the assay on MDA-MB-435 it was 0.277 µM (active); with OVCAR-4, > 100 µM (inactive); with LOX IMVI, 4.98 µM (inactive). In addition, the GI50 was 2.68 µM (inactive) in the assay with COLO 205; 1.7 µM (inactive) in the assay with SF-539; 0.283 µM (active) in the assay on SR; 4.03 µM (inactive) with RPMI-8226; 1.41 µM (inactive) in the assay on SK-OV-3; > 100 µM (inactive) in the assay on OVCAR-5.

Consider `CC(=O)c1c2c(cc3c1CC1(Cc4cc5c(cc4C1)CCC5)C3)CCC2`, for which the GI50 in the assay on DU-145 was > 100 µM (inactive); with SK-MEL-28, > 100 µM (inactive); with MDA-MB-231, > 100 µM (inactive); in the assay on K562, > 100 µM (inactive); with Hs-578T, > 100 µM (inactive); in the assay on HCT-15, above 100 µM. Also, the GI50 in the assay with SF-268, in the assay on SK-MEL-5, in the assay with MDA-MB-435, in the assay with EKVX, with OVCAR-4 and in the assay with LOX IMVI was > 100 µM (inactive) in each case. The GI50 in the assay on SF-539, with SR, in the assay with RPMI-8226, in the assay on SK-OV-3, in the assay with OVCAR-5 and in the assay with HOP-92 was > 100 µM (inactive) throughout.

For `Cc1c(C)c2c(c(N)c1C#N)C(=O)N(CCN1CCNCC1)C2=O`, the GI50 with DU-145 is 29.4 µM (inactive); with SK-MEL-28, 38.3 µM (inactive); with MDA-MB-231, 19.3 µM (inactive); with K562, 51.6 µM (inactive); with Hs-578T, 28.8 µM (inactive); with HCT-15, 35.6 µM. Besides, the GI50 was 34.1 µM (inactive) in the assay with SF-268; > 10 µM (inactive) with SK-MEL-5; 29.1 µM (inactive) in the assay with NCI-H226; 33.5 µM (inactive) with MDA-MB-435; 39 µM (inactive) with EKVX; 40.2 µM (inactive) with OVCAR-4. Moreover, the GI50 in the assay on LOX IMVI is 20.1 µM (inactive); with COLO 205, 22.5 µM (inactive); in the assay on SF-539, 32.8 µM (inactive); in the assay on SR, 25.6 µM (inactive); in the assay with RPMI-8226, 38 µM (inactive); in the assay with OVCAR-5 it was 31.1 µM (inactive). In addition, in the assay with HOP-92, the GI50 was 25.2 µM (inactive).

Regarding `CC1=C(C(=O)OCCc2ccc([N+](=O)[O-])cc2)C(c2ccccc2C(F)(F)F)C(C(=O)OC(C)C)=C(C)N1` (stereo unspecified), the GI50 in the assay on DU-145 is 9.16 µM (inactive); in the assay on SK-MEL-28, 4.89 µM (inactive); with MDA-MB-231, 3.79 µM (inactive); with K562, 2.41 µM (inactive); in the assay with Hs-578T it was 2.12 µM (inactive); in the assay with HCT-15 it was 3.78 µM. The GI50 in the assay on SF-268 is 3.53 µM (inactive); in the assay on SK-MEL-5 it was 1.64 µM (inactive); in the assay on NCI-H226 it was 3.15 µM (inactive); in the assay on MDA-MB-435 it was 3.84 µM (inactive); in the assay with EKVX it was 2.05 µM (inactive); in the assay on OVCAR-4 it was 38 µM (inactive). Besides, the GI50 is 2.96 µM (inactive) with LOX IMVI; 2.97 µM (inactive) in the assay with COLO 205; 3.82 µM (inactive) in the assay on SF-539; 3.11 µM (inactive) in the assay on SR; 3.1 µM (inactive) in the assay with RPMI-8226; 3.97 µM (inactive) in the assay with SK-OV-3. In the assay with OVCAR-5, the GI50 was 16.1 µM (inactive).

`CSc1cc(Cl)c(C(=O)Nc2ccccc2)cc1S(=O)(=O)n1ccnc1O`: the GI50 is > 100 µM (inactive) in the assay with DU-145; > 100 µM (inactive) in the assay on SK-MEL-28; > 100 µM (inactive) with MDA-MB-231; > 100 µM (inactive) in the assay with K562; > 100 µM (inactive) with Hs-578T; above 100 µM in the assay on HCT-15. Moreover, the GI50 in the assay with SF-268, with SK-MEL-5, in the assay with MDA-MB-435, with EKVX, with OVCAR-4 and in the assay with LOX IMVI was > 100 µM (inactive) each time. Further, the GI50 with COLO 205, in the assay with SF-539, with SR, with RPMI-8226, in the assay on SK-OV-3 and in the assay on OVCAR-5 was > 100 µM (inactive) in each case. In the assay on HOP-92, the GI50 was > 100 µM (inactive).

With `Cc1n[nH]c(=O)n1/N=C/c1ccc([N+](=O)[O-])cc1`, the GI50 was > 100 µM (inactive) with DU-145; > 100 µM (inactive) in the assay with SK-MEL-28; > 100 µM (inactive) in the assay on MDA-MB-231; > 100 µM (inactive) in the assay on K562; 78 µM (inactive) with Hs-578T; above 100 µM with HCT-15. In addition, the GI50 in the assay on SF-268 is 70.6 µM (inactive); in the assay with SK-MEL-5, > 100 µM (inactive); in the assay on NCI-H226, > 100 µM (inactive); in the assay with MDA-MB-435 it was > 100 µM (inactive); in the assay with EKVX it was 60.7 µM (inactive); in the assay with OVCAR-4, > 100 µM (inactive). In addition, the GI50 in the assay with LOX IMVI, in the assay on COLO 205, with SF-539, with SR, with RPMI-8226 and in the assay on OVCAR-5 was > 100 µM (inactive) in each case. Moreover, in the assay on HOP-92, the GI50 is 55.3 µM (inactive).

Consider `C[n+]1ccccc1/C=C/c1ccc2c(c1)OCO2`, for which the GI50 with DU-145 is > 10 µM (inactive); with SK-MEL-28 it was > 10 µM (inactive); in the assay with MDA-MB-231, > 10 µM (inactive); with K562, > 10 µM (inactive); in the assay on Hs-578T, > 10 µM (inactive); in the assay on HCT-15 it was above 10 µM. For the same molecule, the GI50 in the assay on SF-268, with SK-MEL-5, with NCI-H226, with MDA-MB-435, in the assay on EKVX and in the assay on OVCAR-4 was > 10 µM (inactive) in each case. Also, the GI50 is > 10 µM (inactive) in the assay on LOX IMVI; 4.55 µM (inactive) with COLO 205; > 10 µM (inactive) in the assay on SF-539; > 10 µM (inactive) in the assay on SR; > 10 µM (inactive) in the assay on RPMI-8226; > 10 µM (inactive) in the assay with SK-OV-3. In addition, the GI50 in the assay on OVCAR-5 is > 10 µM (inactive).

In the case of `Clc1ccc(C(OCn2ccnc2)c2nc3ccccc3[nH]2)c(Cl)c1` (stereo unspecified), the GI50 in the assay with DU-145 was 64.4 µM (inactive); in the assay with SK-MEL-28, 48.3 µM (inactive); with MDA-MB-231, 84.5 µM (inactive); with K562 it was 45.7 µM (inactive); in the assay on Hs-578T it was 59.3 µM (inactive); in the assay with HCT-15, 27.7 µM. For the same molecule, the GI50 in the assay on SF-268 was 61.8 µM (inactive); with SK-MEL-5 it was 16.2 µM (inactive); with MDA-MB-435, 25.2 µM (inactive); with EKVX it was 66.2 µM (inactive); in the assay on OVCAR-4, 16.6 µM (inactive); in the assay on LOX IMVI it was 32.4 µM (inactive). Also, the GI50 in the assay on COLO 205 was 34 µM (inactive); with SF-539, 35.8 µM (inactive); in the assay on SR it was > 10 µM (inactive); with RPMI-8226, 24.6 µM (inactive); with OVCAR-5, > 100 µM (inactive); in the assay with HOP-92, 0.312 µM (active).

Regarding `N#CCOc1cccc(C2(N3CC=CCC3)CCCCC2)c1`, the GI50 with DU-145 was > 100 µM (inactive); in the assay with SK-MEL-28 it was > 100 µM (inactive); in the assay on MDA-MB-231 it was > 100 µM (inactive); in the assay on K562 it was 43 µM (inactive); in the assay on Hs-578T it was > 100 µM (inactive); in the assay with HCT-15 it was above 100 µM. In addition, the GI50 in the assay on SF-268, in the assay on SK-MEL-5, in the assay on NCI-H226, with MDA-MB-435, in the assay on EKVX and in the assay with OVCAR-4 was > 100 µM (inactive) in each case. Also, the GI50 in the assay with LOX IMVI was 97.9 µM (inactive); in the assay on COLO 205 it was > 100 µM (inactive); with SF-539, > 100 µM (inactive); in the assay on SR, > 100 µM (inactive); in the assay with RPMI-8226, 77.6 µM (inactive); in the assay on SK-OV-3, > 100 µM (inactive). In addition, the GI50 with OVCAR-5 was > 100 µM (inactive).

With `C/C(=C\C(=O)O)C(=O)N(C)c1ccccc1I`, the GI50 with DU-145 is > 100 µM (inactive); with SK-MEL-28 it was > 100 µM (inactive); in the assay with MDA-MB-231, > 100 µM (inactive); in the assay with K562, > 100 µM (inactive); in the assay with Hs-578T, > 100 µM (inactive); in the assay with HCT-15, above 100 µM. Moreover, the GI50 with SF-268, with SK-MEL-5, with NCI-H226, with MDA-MB-435, in the assay with EKVX and in the assay on OVCAR-4 was > 100 µM (inactive) throughout. In addition, the GI50 in the assay on LOX IMVI, with COLO 205, in the assay with SR, in the assay on RPMI-8226, in the assay on SK-OV-3 and in the assay on OVCAR-5 was > 100 µM (inactive) in each case. In addition, the GI50 with HOP-92 is > 100 µM (inactive).
